pIC50: −log10 of the molar value. Read-outs that look alike come from different tables or passages of the source.
What was measured:
NR1/NR2B [1] = target: NR1/NR2B (Homo sapiens (Human), UniProt Q05586+Q13224); test: Cell assay: FDSS Ca2+ influx inhibition in HEK293 cells expressing NR1/NR2B; conditions: Binned Activity, HEK293 cells expressing NR1/NR2B, Ca2+ influx; binned NR2B NAM IC50;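 also: Fluo-8 Ca2+ signal read on Hamamatsu FDSS 6000 after glutamate, glycine and Ca2+ challenge following 10 min compound preincubation, end/baseline fluorescence ratio compared with MK801 control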
Sequence of NR1/NR2B (Homo sapiens (Human), UniProt Q05586+Q13224) (Q13224 27-1484, other chains not shown): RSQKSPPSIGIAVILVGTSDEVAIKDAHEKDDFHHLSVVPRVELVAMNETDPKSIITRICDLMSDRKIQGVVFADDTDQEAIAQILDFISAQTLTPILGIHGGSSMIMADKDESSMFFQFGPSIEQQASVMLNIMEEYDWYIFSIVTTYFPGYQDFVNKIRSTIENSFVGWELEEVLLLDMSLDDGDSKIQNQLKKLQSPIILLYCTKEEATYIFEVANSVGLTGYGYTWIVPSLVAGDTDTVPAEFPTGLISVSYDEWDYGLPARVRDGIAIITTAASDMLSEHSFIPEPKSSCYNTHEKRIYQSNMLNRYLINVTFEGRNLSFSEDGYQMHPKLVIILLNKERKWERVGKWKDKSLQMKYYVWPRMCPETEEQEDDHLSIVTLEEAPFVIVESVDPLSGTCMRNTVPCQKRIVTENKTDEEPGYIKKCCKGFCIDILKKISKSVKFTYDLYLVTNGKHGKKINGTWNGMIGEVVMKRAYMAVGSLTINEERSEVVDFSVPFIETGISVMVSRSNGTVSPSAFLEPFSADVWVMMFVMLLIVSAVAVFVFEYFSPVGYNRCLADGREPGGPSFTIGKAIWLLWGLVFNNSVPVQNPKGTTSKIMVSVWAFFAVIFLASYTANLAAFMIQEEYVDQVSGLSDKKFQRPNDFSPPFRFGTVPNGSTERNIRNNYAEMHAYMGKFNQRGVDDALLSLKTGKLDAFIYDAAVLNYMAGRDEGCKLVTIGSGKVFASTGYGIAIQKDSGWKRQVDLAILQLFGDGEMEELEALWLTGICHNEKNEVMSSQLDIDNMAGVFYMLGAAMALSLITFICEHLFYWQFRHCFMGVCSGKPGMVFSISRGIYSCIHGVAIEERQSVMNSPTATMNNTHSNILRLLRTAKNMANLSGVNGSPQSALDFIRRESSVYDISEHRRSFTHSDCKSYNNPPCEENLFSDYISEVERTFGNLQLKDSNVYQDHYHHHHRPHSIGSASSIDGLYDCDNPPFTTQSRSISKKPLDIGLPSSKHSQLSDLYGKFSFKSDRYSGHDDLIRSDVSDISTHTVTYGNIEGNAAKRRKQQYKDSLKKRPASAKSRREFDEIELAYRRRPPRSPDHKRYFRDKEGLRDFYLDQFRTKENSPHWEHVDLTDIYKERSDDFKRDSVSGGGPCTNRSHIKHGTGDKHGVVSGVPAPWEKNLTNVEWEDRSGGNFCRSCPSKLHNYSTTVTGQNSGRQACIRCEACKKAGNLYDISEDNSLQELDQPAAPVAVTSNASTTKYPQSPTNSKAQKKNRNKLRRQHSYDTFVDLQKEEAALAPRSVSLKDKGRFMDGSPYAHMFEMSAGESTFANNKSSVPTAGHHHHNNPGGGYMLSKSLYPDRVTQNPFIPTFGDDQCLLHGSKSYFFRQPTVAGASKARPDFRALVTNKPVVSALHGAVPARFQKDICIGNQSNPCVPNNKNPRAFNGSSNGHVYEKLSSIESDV

NR1/NR2B [2] = target: NR1/NR2B (Homo sapiens (Human), UniProt Q13224); test: as above; conditions: read-out: NR2B NAM IC50
Sequence of NR1/NR2B (Homo sapiens (Human), UniProt Q13224) (Q13224 27-1484, other chains not shown): as above

[3] = HEK293 cells expressing NR1/NR2B, Ca2+ influx

SMILES	pIC50 (NR1/NR2B [1])	pIC50 (NR1/NR2B [2]; [3])	pIC50 (NR1/NR2B [2])
O=C(Nc1ccc(Cl)c(C(F)(F)F)c1)N1C[C@H]2C[C@@H](c3ccccc3)C[C@H]2C1 [Example 108, N-[4-chloro-3-(trifluoromethyl)phenyl]-5-phenyl-octahydrocyclopenta[c] pyrrole-2-carboxamide]	< 5.00	5.00	–
Cc1ccc(NC(=O)N2C[C@@H]3C[C@@](O)(c4ccccc4)C[C@@H]3C2)cc1 [Example 3, 5-hydroxy-N-(4-methylphenyl)-5-phenyl-octahydrocyclopenta[c] pyrrole-2-carboxamide]	< 5.00	–	5.00
COc1cccc([C@]2(O)C[C@H]3CN(CC(=O)c4ccccc4)C[C@H]3C2)c1 [Example 59, 2-[5-hydroxy-5-(3-methoxyphenyl)-octahydrocyclopenta[c]pyrrol-2-yl]-1-phenylethan-1-one]	< 5.00	–	5.00
Cc1cccc(N2C[C@@H]3C[C@@](O)(c4ccc(F)cc4)C[C@@H]3C2)n1 [Example 87, 5-(4-fluorophenyl)-2-(6-methylpyridin-2-yl)-octahydrocyclopenta[c] pyrrol-5-ol]	< 5.00	5.00	–
O=C(Nc1ccc(Cl)c(C(F)(F)F)c1)N1C[C@@H]2C[C@@](O)(Cc3ccccc3)C[C@@H]2C1 [Example 120, (3aR,5r,6aS)-5-benzyl-N-(4-chloro-3-(trifluoromethyl)phenyl)-5-hydroxyhexahydrocyclo-penta[c]pyrrole-2(1H)-carboxamide]	< 5.00	5.00	–
Oc1ccc(C(O)CCN2C[C@@H]3C[C@@](O)(c4ccccc4)C[C@@H]3C2)cc1 (stereo partly drawn) [Example 98, 2-(3-hydroxy-3-(4-hydroxyphenyl)propyl)-5-phenyloctahydrocyclopen-ta[c]pyrrol-5-ol]	< 5.00	5.00	–
Oc1ccc(C(O)CN2C[C@H]3C[C@@H](c4ccccc4)C[C@H]3C2)cc1 (stereo partly drawn) [Example 115, 4-(1-hydroxy-2-(5-phenylhexahydrocyclo-penta[c]pyrrol-2(1H)-yl)ethyl)phenol]	< 5.00	5.00	–
O[C@@]1(c2ccc(F)cc2)C[C@H]2CN(c3cccc(C(F)(F)F)n3)C[C@H]2C1 [Example 81, 5-(4-fluorophenyl)-2-[6-(trifluoromethyl)pyridin-2-yl]-octahydrocyclopenta[c] pyrrol-5-ol]	< 5.00	5.00	–
O=C(Nc1ccccc1C(F)(F)F)N1C[C@@H]2C[C@@](O)(Cc3ccccc3)C[C@@H]2C1 [Example 127, (3aR,5r,6aS)-5-benzyl-5-hydroxy-N-(2-(trifluoromethyl)phenyl) hexahydrocyclopenta[c] pyrrole-2(1H)-carboxamide]	< 5.00	5.00	–
Cc1ccccc1[C@]1(O)C[C@H]2CN(c3cccc(C(F)(F)F)n3)C[C@H]2C1 [Example 84, 5-(2-methylphenyl)-2-[6-(trifluoromethyl)pyridin-2-yl]-octahydrocyclopenta[c] pyrrol-5-ol]	< 5.00	5.00	–
Cc1ccccc1[C@]1(O)C[C@H]2CN(C(=O)Nc3ccc(Cl)c(C(F)(F)F)c3)C[C@H]2C1 [Example 24, N-[4-chloro-3-(trifluoromethyl)phenyl]-5-hydroxy-5-(2-methylphenyl)-octahydrocyclopenta[c] pyrrole-2-carboxamide]	< 5.00	5.00	–
Cc1cccc(N2C[C@@H]3C[C@@](O)(c4ccccc4C)C[C@@H]3C2)n1 [Example 86, 5-(2-methylphenyl)-2-(6-methylpyridin-2-yl)-octahydrocyclopenta[c] pyrrol-5-ol]	< 5.00	5.00	–
Cc1cccc(NC(=O)N2C[C@@H]3C[C@@](O)(Cc4ccccc4)C[C@@H]3C2)c1 [Example 129, (3aR,5r,6aS)-5-benzyl-5-hydroxy-N-(m-tolyl)hexahydrocyclo-penta[c]pyrrole-2(1H)-carboxamide]	< 5.00	5.00	–

Now from value to compound, other results behind:

pIC50 (NR1/NR2B [1])	pIC50 (NR1/NR2B [2]; [3])	SMILES	pIC50 (NR1/NR2B [2])
< 5.00	5.00	Cc1cccc(-c2cccc(C(=O)CN3C[C@@H]4C[C@@](O)(Cc5ccccc5)C[C@@H]4C3)c2)c1 [Example 276, 2-((3aR,5r,6aS)-5-benzyl-5-hydroxyhexahydrocyclo-penta[c]pyrrol-2(1H)-yl)-1-(3′-methyl-[1,1′-biphenyl]-3yl)ethanone]	–
< 5.00	5.00	COc1cccc(C[C@]2(O)C[C@H]3CN(CC(=O)c4ccc(O)c(F)n4)C[C@H]3C2)c1 [Example 200, 1-(6-fluoro-5-hydroxypyridin-2-yl)-2-((3aR,5r,6aS)-5-hydroxy-5-(3-methoxy-benzyl)hexahydro-cyclopenta[c]pyrrol-2(1H)-yl)ethanone]	–
< 5.00	5.00	O=C(COc1ccc(C(=O)CN2C[C@@H]3C[C@@](O)(Cc4ccc(F)cc4)C[C@@H]3C2)cc1F)c1ccc(O)c(F)c1 [Example 173, 2-(2-fluoro-4-(2-((3aR,5r,6aS)-5-(4-fluorobenzyl)-5-hydroxyhexahydrocyclo-penta[c]pyrrol-2(1H)-yl)acetyl)phenoxy)-1-(3-fluoro-4-hydroxyphenyl)ethanone]	–
< 5.00	5.00	O=C(CN1C[C@@H]2C[C@@](O)(Cc3ccccc3)C[C@@H]2C1)c1ccc(Cl)nc1 [Example 155, 2-((3aR,5r,6aS)-5-benzyl-5-hydroxyhexahydrocyclo-penta[c]pyrrol-2(1H)-yl)-1-(6-chloropyridin-3-yl)ethanone]	–
< 5.00	5.00	CC(C)(C)OC(=O)Nc1ccc(C(=O)CN2C[C@@H]3C[C@@](O)(Cc4ccccc4)C[C@@H]3C2)cn1 [Example 284, tert-butyl (5-(2-(5-benzyl-5-hydroxyhexahydrocyclo-penta[c]pyrrol-2(1H)-yl)acetyl)pyridin-2-yl)carbamate]	–
6.00 to 7.00	6.38	Oc1ccc([C@@H](O)CN2C[C@@H]3C[C@](F)(Cc4ccccc4)C[C@@H]3C2)cc1 [Example 314, 4-((R)-2-((3aR,5S,6aS)-5-benzyl-5-fluoro-hexahydrocyclopen-ta[c]pyrrol-2(1H)-yl)-1-hydroxyethyl)phenol]	–
< 5.00	5.00	O=C(CN1C[C@@H]2CC(O)(CCc3ccccc3)C[C@@H]2C1)c1ccc(-c2ccccc2)cc1 (stereo partly drawn) [Example 269, 2-[5-hydroxy-5-(2-phenylethyl)-octahydrocyclopenta[c]pyrrol-2-yl]-1-(4-phenylphenyl)ethan-1-one]	–
5.00 to 6.00	5.67	O=C(CN1C[C@@H]2C[C@@](O)(Cc3ccc(F)cc3F)C[C@@H]2C1)c1ccc(O)cn1 [Example 230, 2-((3aR,5r,6aS)-5-(2,4-difluorobenzyl)-5-hydroxyhexahydrocyclo-penta[c]pyrrol-2(1H)-yl)-1-(5-hydroxypyridin-2-yl)ethanone]	–
< 5.00	5.00	O=C(CN1C[C@@H]2C[C@@](O)(Cc3ccccc3)C[C@@H]2C1)c1ccc2[nH]nnc2c1 [Example 167, 2-[(3aR,5R,6aS)-5-benzyl-5-hydroxy-octahydrocyclopenta[c]pyrrol-2-yl]-1-(1H-1,2,3-benzotriazol-5-yl)ethan-1-one]	–
> 7.00	7.29	O=C(CN1C[C@H]2CC(Cc3ccccc3)C[C@H]2C1)c1ccc(O)cc1 (stereo partly drawn) [Example 295, 2-((3aR,6aS)-5-benzylhexahydrocyclo-penta[c]pyrrol-2(1H)-yl)-1-(4-hydroxyphenyl)ethanone]	–
6.00 to 7.00	6.45	O=C1Cc2cc(C(=O)CN3C[C@@H]4C[C@@](O)(Cc5ccccc5)C[C@@H]4C3)ccc2N1 [Example 147, 5-(2-((3aR,5r,6aS)-5-benzyl-5-hydroxyhexahydrocyclo-penta[c]pyrrol-2(1H)-yl)acetyl)indolin-2-one]	–
6.00 to 7.00	6.00	O=C(CN1C[C@@H]2C[C@@](O)(Cc3ccccc3F)C[C@@H]2C1)c1ccc(O)cn1 [Example 221, 2-(5-(2-fluorobenzyl)-5-hydroxyhexahydrocyclo-penta[c]pyrrol-2(1H)-yl)-1-(5-hydroxypyridin-2-yl)ethanone]	–
< 5.00	5.00	COc1ccc(-c2cccc(C(=O)CN3C[C@@H]4C[C@@](O)(Cc5ccccc5)C[C@@H]4C3)c2)cc1 [Example 263, 2-((3aR,5r,6aS)-5-benzyl-5-hydroxyhexahydrocyclo-penta[c]pyrrol-2(1H)-yl)-1-(4′-methoxy-[1,1′-biphenyl]-3-yl)ethanone]	–
5.00 to 6.00	5.51	O=C(CN1C[C@@H]2C[C@@](O)(Cc3cccc(F)c3F)C[C@@H]2C1)c1ccc(O)cn1 [Example 247, 2-((3aR,5r,6aS)-5-(2,3-difluorobenzyl)-5-hydroxyhexahydrocyclo-penta[c]pyrrol-2(1H)-yl)-1-(5-hydroxypyridin-2-yl)ethanone]	–
< 5.00	5.00	CC(=O)Nc1ccc(C(=O)CN2C[C@@H]3C[C@@](O)(Cc4ccccc4)C[C@@H]3C2)cc1 [Example 141, N-(4-(2-((3aR,5r,6aS)-5-benzyl-5-hydroxyhexahydrocyclo-penta[c]pyrrol-2(1H)-yl)acetyl)phenyl) acetamide]	–
< 5.00	5.00	O=C(CN1C[C@@H]2CN(Cc3ccccc3)C[C@@H]2C1)c1ccc(O)c(F)c1 [Example 340, 2-(5-benzylhexahydropyrrolo [3,4-c]pyrrol-2(1H)-yl)-1-(3-fluoro-4-hydroxyphenyl)ethanone]	–
> 7.00	7.12	O=C(CN1C[C@@H]2C[C@](O)(Cc3ccccc3)C[C@@H]2C1)c1ccc(O)cc1 [Example 290, 2-((3aR,5r,6aS)-5-benzyl-5-hydroxyhexahydrocyclo-penta[c]pyrrol-2(1H)-yl)-1-(4-hydroxyphenyl)ethanone]	–

From patent US10052306B2 (LUC THERAPEUTICS, INC., priority 2013, dated 2018)
